Source: patent publication US10870647B2, “Imidazopyridine derivative, method for preparing same, and pharmaceutical composition containing same as active ingredient for preventing or treating cancer” (DAEGU-GYEONGBUK MEDICAL INNOVATION FOUNDATION, priority 2016, dated 2020)

What was measured:
Experiment in all cases: Kinase selectivity, scanMAX Kinase assay panel (DiscoverX), % control at 1 uM
Assay type in all cases: binding
[1] = target: T1, scanMAX Kinase assay panel (Homo sapiens, UniProt P10721, D816V); details: KIT (D816V); 1 uM; read-out: Percent Control (%)
T1 construct: purchased DiscoverX
Outline: (§1)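 1 uM cpd (DMSO) per kinase; % ctrl = [cpd − pos ctrl]/[neg ctrl − pos ctrl] × 100; hit if <35.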

[2] = target: T2, scanMAX Kinase assay panel (Homo sapiens, UniProt Q9BVS4); details: RIOK2; 1 uM; read-out: Percent Control (%)
T2 construct: purchased DiscoverX
Outline: as §1

[3] = target: T3, scanMAX Kinase assay panel (Homo sapiens, UniProt Q13043); details: MST1; 1 uM; read-out: Percent Control (%)
T3 construct: purchased DiscoverX
T3 sequence (Q13043 1-487): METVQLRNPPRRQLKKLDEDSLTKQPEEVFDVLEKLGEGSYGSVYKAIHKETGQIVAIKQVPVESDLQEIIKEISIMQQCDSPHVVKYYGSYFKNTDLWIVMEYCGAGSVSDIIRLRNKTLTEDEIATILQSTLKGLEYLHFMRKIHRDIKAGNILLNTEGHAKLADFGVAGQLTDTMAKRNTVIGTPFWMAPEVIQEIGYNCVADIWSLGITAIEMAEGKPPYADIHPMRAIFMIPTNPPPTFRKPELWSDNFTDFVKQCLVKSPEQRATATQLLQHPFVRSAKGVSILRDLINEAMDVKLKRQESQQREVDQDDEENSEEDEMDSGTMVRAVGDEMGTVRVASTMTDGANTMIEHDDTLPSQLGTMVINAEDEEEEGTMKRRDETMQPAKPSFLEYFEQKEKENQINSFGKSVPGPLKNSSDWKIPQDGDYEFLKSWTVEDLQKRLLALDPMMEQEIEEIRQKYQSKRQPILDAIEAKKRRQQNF
Outline: as §1

[4] = target: T4, scanMAX Kinase assay panel (Homo sapiens, UniProt O14965); details: AURKA; 1 uM; read-out: Percent Control (%)
T4 construct: purchased DiscoverX
T4 sequence (O14965 1-403): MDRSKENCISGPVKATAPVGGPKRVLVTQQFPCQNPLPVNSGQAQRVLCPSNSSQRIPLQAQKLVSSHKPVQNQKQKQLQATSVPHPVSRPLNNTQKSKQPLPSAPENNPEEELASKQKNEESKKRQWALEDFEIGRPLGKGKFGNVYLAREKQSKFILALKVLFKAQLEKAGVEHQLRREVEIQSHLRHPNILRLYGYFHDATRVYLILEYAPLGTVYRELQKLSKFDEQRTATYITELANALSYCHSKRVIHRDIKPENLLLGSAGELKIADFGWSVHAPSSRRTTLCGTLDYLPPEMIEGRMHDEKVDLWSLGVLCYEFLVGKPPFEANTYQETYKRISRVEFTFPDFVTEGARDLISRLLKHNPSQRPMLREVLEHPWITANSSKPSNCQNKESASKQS
Outline: as §1

[5] = target: T5, scanMAX Kinase assay panel (Homo sapiens, UniProt Q02763); details: TIE2; 1 uM; read-out: Percent Control (%)
T5 construct: purchased DiscoverX
Outline: as §1

[6] = target: T6, scanMAX Kinase assay panel (Homo sapiens, UniProt Q8TDX7); details: NEK7; 1 uM; read-out: Percent Control (%)
T6 construct: purchased DiscoverX
Outline: as §1

[7] = target: T7, scanMAX Kinase assay panel (Homo sapiens, UniProt O95835); details: LATS1; 1 uM; read-out: Percent Control (%)
T7 construct: purchased DiscoverX
T7 sequence (O95835 1-1130): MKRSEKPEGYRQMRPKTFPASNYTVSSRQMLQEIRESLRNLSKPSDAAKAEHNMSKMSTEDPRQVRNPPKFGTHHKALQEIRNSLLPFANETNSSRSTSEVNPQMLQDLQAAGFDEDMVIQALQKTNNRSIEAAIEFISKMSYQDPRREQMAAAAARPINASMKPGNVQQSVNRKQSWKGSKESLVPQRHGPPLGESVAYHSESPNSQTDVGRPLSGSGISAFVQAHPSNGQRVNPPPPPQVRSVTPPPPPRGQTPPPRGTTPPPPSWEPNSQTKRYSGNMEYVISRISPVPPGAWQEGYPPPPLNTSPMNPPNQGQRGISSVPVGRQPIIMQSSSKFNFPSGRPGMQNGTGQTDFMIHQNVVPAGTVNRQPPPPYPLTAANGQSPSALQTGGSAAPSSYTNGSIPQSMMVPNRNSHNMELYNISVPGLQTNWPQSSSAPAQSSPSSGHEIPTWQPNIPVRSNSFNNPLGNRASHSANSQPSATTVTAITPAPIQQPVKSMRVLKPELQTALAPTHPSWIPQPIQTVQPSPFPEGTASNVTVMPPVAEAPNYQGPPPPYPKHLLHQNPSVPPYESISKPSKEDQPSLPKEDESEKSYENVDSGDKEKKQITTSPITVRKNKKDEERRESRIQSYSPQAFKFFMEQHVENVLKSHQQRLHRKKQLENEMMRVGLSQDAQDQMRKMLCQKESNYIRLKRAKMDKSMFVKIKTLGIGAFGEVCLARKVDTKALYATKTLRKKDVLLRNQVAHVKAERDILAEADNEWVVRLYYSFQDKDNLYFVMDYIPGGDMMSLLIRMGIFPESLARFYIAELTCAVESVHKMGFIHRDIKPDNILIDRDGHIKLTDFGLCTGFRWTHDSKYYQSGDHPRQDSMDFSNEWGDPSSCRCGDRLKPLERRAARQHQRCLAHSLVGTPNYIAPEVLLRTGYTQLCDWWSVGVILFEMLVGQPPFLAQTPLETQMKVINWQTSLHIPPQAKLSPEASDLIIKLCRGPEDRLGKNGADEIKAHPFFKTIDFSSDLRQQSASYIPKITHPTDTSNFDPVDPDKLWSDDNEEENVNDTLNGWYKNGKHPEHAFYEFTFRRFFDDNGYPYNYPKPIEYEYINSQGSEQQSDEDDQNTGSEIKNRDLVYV
Outline: as §1

T1 sequence (P10721 26-976 D816V): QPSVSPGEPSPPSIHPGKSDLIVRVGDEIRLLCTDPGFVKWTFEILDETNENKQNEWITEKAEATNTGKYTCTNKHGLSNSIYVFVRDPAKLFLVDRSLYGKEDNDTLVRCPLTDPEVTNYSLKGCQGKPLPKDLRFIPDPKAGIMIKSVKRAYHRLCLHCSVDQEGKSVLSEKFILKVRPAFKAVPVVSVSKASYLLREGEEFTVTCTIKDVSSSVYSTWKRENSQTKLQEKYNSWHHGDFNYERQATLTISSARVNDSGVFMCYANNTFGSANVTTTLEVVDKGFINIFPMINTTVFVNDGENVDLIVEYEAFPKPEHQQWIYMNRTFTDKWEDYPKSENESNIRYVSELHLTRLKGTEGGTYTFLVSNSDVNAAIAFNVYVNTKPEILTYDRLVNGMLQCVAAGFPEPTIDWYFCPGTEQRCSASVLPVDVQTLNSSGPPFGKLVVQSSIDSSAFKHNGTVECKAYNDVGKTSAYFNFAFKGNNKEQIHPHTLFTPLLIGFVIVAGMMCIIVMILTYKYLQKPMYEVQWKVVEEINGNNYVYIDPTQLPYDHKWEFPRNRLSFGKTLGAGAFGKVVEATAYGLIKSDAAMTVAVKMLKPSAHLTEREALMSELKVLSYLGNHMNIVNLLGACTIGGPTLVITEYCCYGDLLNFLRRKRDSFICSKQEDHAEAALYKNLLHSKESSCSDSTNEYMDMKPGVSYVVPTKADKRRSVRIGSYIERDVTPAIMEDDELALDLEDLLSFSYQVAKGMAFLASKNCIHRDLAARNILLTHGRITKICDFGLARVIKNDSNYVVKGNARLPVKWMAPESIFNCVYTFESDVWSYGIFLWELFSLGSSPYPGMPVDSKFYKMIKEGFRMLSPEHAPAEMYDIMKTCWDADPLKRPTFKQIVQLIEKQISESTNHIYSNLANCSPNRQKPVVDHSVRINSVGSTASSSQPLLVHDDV
T2 sequence (Q9BVS4 whole entry): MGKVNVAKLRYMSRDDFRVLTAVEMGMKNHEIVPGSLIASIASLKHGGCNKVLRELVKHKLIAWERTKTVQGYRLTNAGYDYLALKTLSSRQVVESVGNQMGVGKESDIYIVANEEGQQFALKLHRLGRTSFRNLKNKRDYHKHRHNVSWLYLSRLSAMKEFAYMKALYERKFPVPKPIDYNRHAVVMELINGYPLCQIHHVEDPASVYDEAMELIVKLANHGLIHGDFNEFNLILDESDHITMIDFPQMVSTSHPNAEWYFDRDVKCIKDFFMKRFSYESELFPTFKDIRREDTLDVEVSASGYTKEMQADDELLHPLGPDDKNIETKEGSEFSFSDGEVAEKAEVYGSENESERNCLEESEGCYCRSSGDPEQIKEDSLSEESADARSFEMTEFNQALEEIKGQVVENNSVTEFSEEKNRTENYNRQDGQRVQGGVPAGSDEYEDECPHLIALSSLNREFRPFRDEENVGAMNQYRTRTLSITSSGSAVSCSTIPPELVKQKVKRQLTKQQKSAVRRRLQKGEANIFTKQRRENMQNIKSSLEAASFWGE
T5 sequence (Q02763 23-1124): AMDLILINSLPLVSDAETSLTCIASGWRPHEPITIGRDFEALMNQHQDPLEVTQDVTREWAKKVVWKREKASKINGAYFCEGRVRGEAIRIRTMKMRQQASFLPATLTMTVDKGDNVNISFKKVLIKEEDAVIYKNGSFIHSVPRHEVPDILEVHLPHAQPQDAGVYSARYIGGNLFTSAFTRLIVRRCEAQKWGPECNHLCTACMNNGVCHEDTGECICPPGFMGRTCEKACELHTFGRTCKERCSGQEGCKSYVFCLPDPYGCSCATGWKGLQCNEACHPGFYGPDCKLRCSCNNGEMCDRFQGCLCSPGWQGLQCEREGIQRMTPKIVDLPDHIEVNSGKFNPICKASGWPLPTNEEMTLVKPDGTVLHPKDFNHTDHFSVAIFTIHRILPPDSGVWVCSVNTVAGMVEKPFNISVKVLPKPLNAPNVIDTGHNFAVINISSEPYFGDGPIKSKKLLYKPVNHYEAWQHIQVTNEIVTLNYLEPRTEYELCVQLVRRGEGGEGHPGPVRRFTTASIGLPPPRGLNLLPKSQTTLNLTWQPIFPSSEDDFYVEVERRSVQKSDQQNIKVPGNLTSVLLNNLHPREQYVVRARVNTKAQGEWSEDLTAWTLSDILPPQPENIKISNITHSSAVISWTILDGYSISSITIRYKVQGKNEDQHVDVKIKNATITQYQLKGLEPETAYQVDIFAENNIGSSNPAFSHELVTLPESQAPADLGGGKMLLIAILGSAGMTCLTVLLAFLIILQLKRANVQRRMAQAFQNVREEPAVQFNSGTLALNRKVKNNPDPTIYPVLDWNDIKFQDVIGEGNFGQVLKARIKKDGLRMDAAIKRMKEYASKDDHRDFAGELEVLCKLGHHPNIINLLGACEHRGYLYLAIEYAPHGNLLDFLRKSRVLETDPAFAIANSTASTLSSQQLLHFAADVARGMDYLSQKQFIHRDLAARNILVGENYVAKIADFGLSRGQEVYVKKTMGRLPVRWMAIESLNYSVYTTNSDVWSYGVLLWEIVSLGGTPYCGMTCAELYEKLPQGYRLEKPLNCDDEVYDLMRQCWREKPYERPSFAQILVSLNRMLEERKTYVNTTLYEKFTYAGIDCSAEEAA
T6 sequence (Q8TDX7 whole entry): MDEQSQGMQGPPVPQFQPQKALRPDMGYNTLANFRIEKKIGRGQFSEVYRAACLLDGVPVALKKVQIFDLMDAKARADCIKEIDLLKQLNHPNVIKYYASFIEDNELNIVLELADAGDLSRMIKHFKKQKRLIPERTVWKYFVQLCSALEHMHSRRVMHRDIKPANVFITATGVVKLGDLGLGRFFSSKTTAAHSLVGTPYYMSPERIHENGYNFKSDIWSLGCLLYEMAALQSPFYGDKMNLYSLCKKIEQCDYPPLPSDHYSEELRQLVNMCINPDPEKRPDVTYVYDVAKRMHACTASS

| Compound | remaining binding at 1 µM [1] | remaining binding at 1 µM [2] | remaining binding at 1 µM [3] | remaining binding at 1 µM [4] | remaining binding at 1 µM [5] | remaining binding at 1 µM [6] | remaining binding at 1 µM [7] |
| --- | --- | --- | --- | --- | --- | --- | --- |
| Cc1ccc(C(=O)Nc2ccc(CN3CCN(C)CC3)c(C(F)(F)F)c2)cc1C#Cc1cnc2c(Nc3cnn(C)c3)cccn12 [Example 1, 4-methyl-3-((8-((1-methyl-1H-pyrazol-4-yl)amino)imidazo[1,2-a]pyridin-3-yl)ethynyl)-N-(4-((4-methylpiperazin-1-yl)methyl)-3-(trifluoromethyl)phenyl)benzamide] | 3% | 88% | 27% | 72% | 0% | 71% | 40% |
| Cc1cn(-c2cc(NC(=O)c3ccc(C)c(C#Cc4cnc5c(Nc6cnn(C)c6)cccn45)c3)cc(C(F)(F)F)c2)cn1 [Example 12, 4-methyl-N-(3-(4-methyl-1H-imidazol-1-yl)-5-(trifluoromethyl)phenyl)-3-((8-((1-methyl-1H-pyrazol-4-yl)amino)imidazo[1,2-a]pyridin-3-yl)ethynyl)benzamide] | 7% | 100% | 84% | 100% | 0% | 82% | 96% |
| Cc1ccc(NC(=O)C2(C(=O)Nc3ccc(F)cc3)CC2)cc1C#Cc1cnc2c(Nc3cnn(C(C)C)c3)cccn12 [Example 78] | 61% | 100% | 100% | 100% | 16% | 100% | 82% |
